Measured values taken from US20250059220A1, “SUBSTITUTED BENZOTHIOPHENE DERIVATIVES AND METHODS OF USE THEREOF” (Merck Sharp & Dohme LLC, priority 2021, published 2025).

Columns and labels:
[1] = biological target: human PTPN2 (1-387) (Homo sapiens (Human), UniProt P17706); assay: Human PTPN2 Biochemical Assay; details: DiFMUP substrate
Protocol: Human PTPN2 Biochemical Assay
Test compounds were dissolved in DMSO, and 10-point serial 3-fold dilution series in DMSO were prepared in Echo Qualified 384-well Polypropylene Microplates (Labcyte, San Jose, CA) (top concentration 50 µM). Assay plates (384-well low volume black plates; Corning #3820, Corning, NY) were prepared by dispensing 50 nL of test compound, and DMSO (for high and low controls) by ECHO acoustic dispenser (Labcyte, San Jose CA). This was followed by addition of 5 μL of 0.2 nM human PTPN2 (1-387) solution (prepared in the assay buffer, 50 mM Tris pH 7.4, 150 mM NaCl, 0.01% Tween20, 0.5 mM dithiothreitol) to all wells except the low control. 5 μl of assay buffer was added into the low control, then the plate was incubated for 30 minutes at room temperature. Subsequently, 5 μl of 100 µM DiFMUP (6,8-difluoro-4-methylumbelliferyl phosphate) solution (prepared in assay buffer from 10 mM stock in DMSO) was added to the assay plate and incubated for 1 hour at room temperature. For detection, assay plates were read on SpectraMax Microplate Reader (Molecular Devices), with Excitation wavelength=360 nm and Emission wavelength=460 nm. Test compound effects were normalized to the window defined by the controls, DMSO/buffer, and DMSO/50 pM human PTPN2. Calculated % effects were fit using a 4-parameter algorithm, and EC50 was reported.

[2] = biological target: human PTPN1 (1-435) (Homo sapiens (Human), UniProt P18031); assay: Human PTPN1 Biochemical Assay; details: DiFMUP substrate, read-out: PTP1B IC50
Protocol: Human PTPN1 Biochemical Assay
Test compounds were dissolved in DMSO, and 10-point serial 3-fold dilution series in DMSO were prepared in Echo Qualified 384-well Polypropylene Microplates (Labcyte, San Jose, CA) (top concentration 50 µM). […] 5 μl of assay buffer was added into the low control. The plate was incubated for 30 minutes at room temperature. Subsequently, 5 μl of 100 µM DiFMUP (6,8-difluoro-4-methylumbelliferyl phosphate) solution (prepared in assay buffer from 10 mM stock in DMSO) was added to the assay plate and incubated for 1 hour at room temperature. For detection, assay plates were read on SpectraMax Microplate Reader (Molecular Devices), with Excitation wavelength=360 nm and Emission wavelength=460 nm. […] Calculated % effects were fit using a 4-parameter algorithm, and EC50 was reported.

Chain of human PTPN1 (1-435) (P18031 whole entry): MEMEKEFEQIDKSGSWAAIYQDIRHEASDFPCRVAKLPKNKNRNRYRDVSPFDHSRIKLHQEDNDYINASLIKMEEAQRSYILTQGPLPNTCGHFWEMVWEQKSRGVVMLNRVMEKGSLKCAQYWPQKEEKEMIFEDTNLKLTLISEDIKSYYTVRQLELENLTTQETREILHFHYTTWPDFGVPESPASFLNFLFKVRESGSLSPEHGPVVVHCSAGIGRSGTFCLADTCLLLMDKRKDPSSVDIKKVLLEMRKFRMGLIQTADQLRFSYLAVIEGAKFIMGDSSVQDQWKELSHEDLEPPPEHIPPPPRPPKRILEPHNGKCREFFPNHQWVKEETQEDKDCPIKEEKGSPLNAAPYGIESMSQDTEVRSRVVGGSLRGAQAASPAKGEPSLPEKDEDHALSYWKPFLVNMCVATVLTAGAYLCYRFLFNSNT
Chain of human PTPN2 (1-387) (P17706 other isoform, or with tags, fused parts or gaps): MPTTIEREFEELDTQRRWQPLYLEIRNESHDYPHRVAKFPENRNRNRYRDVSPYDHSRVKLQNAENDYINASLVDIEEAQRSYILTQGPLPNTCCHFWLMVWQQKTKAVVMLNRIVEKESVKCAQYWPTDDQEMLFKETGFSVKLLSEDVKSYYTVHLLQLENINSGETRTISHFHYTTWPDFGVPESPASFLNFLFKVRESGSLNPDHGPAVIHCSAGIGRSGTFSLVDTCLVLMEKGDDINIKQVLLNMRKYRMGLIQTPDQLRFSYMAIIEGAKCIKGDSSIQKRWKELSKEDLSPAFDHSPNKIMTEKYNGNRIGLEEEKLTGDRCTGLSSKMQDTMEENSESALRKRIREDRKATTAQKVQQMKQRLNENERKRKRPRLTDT

SMILES	IC50 [1]	IC50 [2]
CN(C(=O)c1ccc2sc(C(F)(F)P(=O)(O)O)c(Br)c2c1)c1cccc(Oc2ccccc2)c1 [Compound 20]	6.14 µM	4.44 µM
N#CC1(c2ccc(NC(=O)c3ccc4sc(C(F)(F)P(=O)(O)O)c(Br)c4c3)cc2)CCCCC1 [Compound 21]	2.15 µM	1.41 µM
O=C(NCc1cnn2ccccc12)c1ccc2sc(C(F)(F)P(=O)(O)O)c(Br)c2c1 [Compound 22]	2.59 µM	1.99 µM
O=C(Nc1cccnc1Oc1ccccc1)c1ccc2sc(C(F)(F)P(=O)(O)O)c(Br)c2c1 [Compound 23]	9.28 µM	7.25 µM
COc1cccc(NC(=O)c2ccc3sc(C(F)(F)P(=O)(O)O)c(Br)c3c2)c1 [Compound 24]	2.16 µM	1.36 µM
O=C(Nc1ccc(F)cc1)c1ccc2sc(C(F)(F)P(=O)(O)O)c(Br)c2c1 [Compound 25]	3.17 µM	2.57 µM
O=C(Nc1ccc(OCC2CCCO2)cc1)c1ccc2sc(C(F)(F)P(=O)(O)O)c(Br)c2c1 (stereo not drawn) [Compound 26]	2.34 µM	1.72 µM
O=C(NC1CC(F)(F)C1)c1ccc2sc(C(F)(F)P(=O)(O)O)c(Br)c2c1 [Compound 27]	3.23 µM	2.19 µM
O=C(NCC1CC(F)(F)C1)c1ccc2sc(C(F)(F)P(=O)(O)O)c(Br)c2c1 [Compound 28]	6.93 µM	5.16 µM
COc1ccc(NC(=O)c2ccc3sc(C(F)(F)P(=O)(O)O)c(Br)c3c2)cc1 [Compound 29]	3.34 µM	2.49 µM
O=C(NCc1cncc(C(F)(F)F)c1)c1ccc2sc(C(F)(F)P(=O)(O)O)c(Br)c2c1 [Compound 30]	2.09 µM	1.84 µM
O=C(Nc1ccccc1F)c1ccc2sc(C(F)(F)P(=O)(O)O)c(Br)c2c1 [Compound 32]	1.89 µM	1.31 µM
O=C(Nc1cccc(F)c1)c1ccc2sc(C(F)(F)P(=O)(O)O)c(Br)c2c1 [Compound 33]	1.86 µM	2.12 µM
N#CCCCNC(=O)c1ccc2sc(C(F)(F)P(=O)(O)O)c(Br)c2c1 [Compound 34]	5.86 µM	4.48 µM
CC(NC(=O)c1ccc2sc(C(F)(F)P(=O)(O)O)c(Br)c2c1)c1cccnc1 (stereo not drawn) [Compound 35]	7.16 µM	6.44 µM
O=C(NC1CCC(F)(F)CC1)c1ccc2sc(C(F)(F)P(=O)(O)O)c(Br)c2c1 [Compound 36]	3.93 µM	2.75 µM
N#CC1CCC(NC(=O)c2ccc3sc(C(F)(F)P(=O)(O)O)c(Br)c3c2)C1 (stereo not drawn) [Compound 37]	3.49 µM	2.65 µM
N#CC1(CNC(=O)c2ccc3sc(C(F)(F)P(=O)(O)O)c(Br)c3c2)CC1 [Compound 38]	4.24 µM	3.4 µM
O=C(NC1CC1(F)F)c1ccc2sc(C(F)(F)P(=O)(O)O)c(Br)c2c1 (stereo not drawn) [Compound 39]	3 µM	2.27 µM
COC1CC(NC(=O)c2ccc3sc(C(F)(F)P(=O)(O)O)c(Br)c3c2)C1 (stereo not drawn) [Compound 40]	5.78 µM	4.2 µM
O=C(NC1CCC(F)(F)C1)c1ccc2sc(C(F)(F)P(=O)(O)O)c(Br)c2c1 (stereo not drawn) [Compound 41]	3.23 µM	2.23 µM
O=C(NCc1cncnc1)c1ccc2sc(C(F)(F)P(=O)(O)O)c(Br)c2c1 [Compound 42]	2.38 µM	1.78 µM
Cc1noc(C)c1CCNC(=O)c1ccc2sc(C(F)(F)P(=O)(O)O)c(Br)c2c1 [Compound 43]	6.53 µM	4.9 µM
CS(=O)(=O)N1CCC(NC(=O)c2ccc3sc(C(F)(F)P(=O)(O)O)c(Br)c3c2)CC1 [Compound 44]	3.06 µM	2.47 µM
COCCCCNC(=O)c1ccc2sc(C(F)(F)P(=O)(O)O)c(Br)c2c1 [Compound 45]	5.17 µM	4.08 µM
N#CCCCCNC(=O)c1ccc2sc(C(F)(F)P(=O)(O)O)c(Br)c2c1 [Compound 46]	8.5 µM	6.23 µM
O=C(NCCCC(F)(F)F)c1ccc2sc(C(F)(F)P(=O)(O)O)c(Br)c2c1 [Compound 47]	4.91 µM	4.21 µM
